Test systems include EKVX NSCLC; HCT-15 colon; HL-60(TB) leukemia; HT29 colon; MDA-MB-231 breast; MDA-N; NCI-H460 lung; OVCAR-4 ovarian; TK-10 renal.
What all share (assay): DTP human tumour cell line panel, 48 h

Each structure is given as a SMILES string.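 96-well plates; 48 h exposure; 5 concentrations. Endpoints by linear interpolation between flanking doses. Not reached: highest tested concentration assigned. TGI marks complete inhibition of growth.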

`COc1cc2c3c(n(C)c(=O)c2cc1OC)-c1cc2c(cc1/C3=C\CCCI)OCO2`: the TGI in the assay with EKVX NSCLC, in the assay with HCT-15 colon, in the assay on HL-60(TB) leukemia, in the assay with HT29 colon, in the assay on MDA-MB-231 breast and with MDA-N was greater than 100 µM in each case. The TGI in the assay on NCI-H460 lung is greater than 100 µM; in the assay on OVCAR-4 ovarian, greater than 100 µM; in the assay on TK-10 renal, greater than 85.6 µM.

Take `CCCCCCCCCCCCCCC(O)C[N+](C)(CCO)CCO` (centres undefined): the TGI with EKVX NSCLC turned out to be 42.6 µM; in the assay with HCT-15 colon, 22 µM; in the assay on HL-60(TB) leukemia it was 2.71 µM; in the assay with HT29 colon, 12.1 µM; in the assay with MDA-MB-231 breast, 3.76 µM; in the assay on MDA-N, 22.8 µM. Moreover, the TGI with NCI-H460 lung was 6.56 µM; with OVCAR-4 ovarian, 17 µM; with TK-10 renal, 4.16 µM.

`COc1cc2c(c(O)c1OC)CC1CCC(=O)N1C2c1cccc2ccccc12` (centres undefined): the TGI in the assay with EKVX NSCLC was 54.5 µM; in the assay with HCT-15 colon it was 82.9 µM; in the assay on HL-60(TB) leukemia, greater than 100 µM; with HT29 colon, 34.5 µM; in the assay with MDA-MB-231 breast, 33 µM; in the assay with MDA-N, 31.7 µM. For the same compound, the results for the TGI in the assay on NCI-H460 lung and in the assay with TK-10 renal were 61.1 µM and greater than 100 µM, respectively.

Turning to `CCOC(=O)c1nc2ccc(C(F)(F)F)cc2nc1Nc1ccc(Cl)c(Cl)c1`, the concentration for total growth inhibition (TGI) in the assay with EKVX NSCLC, in the assay on HCT-15 colon, with HL-60(TB) leukemia, in the assay with HT29 colon, in the assay on MDA-MB-231 breast and in the assay with MDA-N was greater than 100 µM in each case. Further, the TGI with NCI-H460 lung and in the assay with TK-10 renal was greater than 100 µM in each case.

For `O=C1C(Cl)=C(N(C(=O)c2ccccc2)C(=O)c2ccccc2)C(=O)c2ccccc21`, the TGI with EKVX NSCLC was greater than 100 µM; with HCT-15 colon, 9 µM; in the assay with HL-60(TB) leukemia it was 3.15 µM; in the assay with HT29 colon, 69.3 µM; in the assay with MDA-MB-231 breast, greater than 100 µM; in the assay on MDA-N it was 25.8 µM. Also, the TGI was 28.5 µM in the assay on NCI-H460 lung and 37.8 µM in the assay with TK-10 renal.

`O=c1ccn(C2OC(CO)C(O)C2F)c(=O)n1Cc1ccccc1` (centres undefined): the concentration for total growth inhibition (TGI) in the assay on EKVX NSCLC, with HCT-15 colon, in the assay on HL-60(TB) leukemia, with HT29 colon, in the assay with MDA-MB-231 breast and in the assay on MDA-N was greater than 100 µM throughout. In the assay on TK-10 renal, the TGI is greater than 100 µM.

Regarding `CC(C)=CCc1[nH]c2ccccc2c1C1=C(O)C(=O)C(c2c(CC=C(C)C)[nH]c3ccccc23)=C(O)C1=O`, the TGI in the assay with EKVX NSCLC was 7.59 µM; in the assay on HCT-15 colon it was 3.48 µM; in the assay on HL-60(TB) leukemia it was 5.6 µM; in the assay with HT29 colon it was 6.34 µM; in the assay with MDA-MB-231 breast, 3.38 µM; in the assay with MDA-N it was 11.5 µM. Moreover, the total growth inhibition concentration (TGI) in the assay with NCI-H460 lung worked out at 3.87 µM; with OVCAR-4 ovarian, 93.1 µM.

Take `NNC(=S)NCCNC(=S)NN`: the TGI in the assay with EKVX NSCLC, in the assay on HL-60(TB) leukemia, in the assay on HT29 colon, in the assay with MDA-MB-231 breast, in the assay with MDA-N and with NCI-H460 lung was greater than 100 µM throughout. Moreover, the TGI in the assay on OVCAR-4 ovarian was greater than 100 µM.

Turning to `COc1cc(OC)c2c3c(OC)cc(OC)c4c(=O)c(O)c(C[C@@H](C)O)c(c5c(C[C@@H](C)O)c(O)c(=O)c1c25)c43`, the TGI with EKVX NSCLC is greater than 100 µM; with HCT-15 colon it was 44.4 µM; in the assay on HL-60(TB) leukemia, 30.7 µM; in the assay on HT29 colon, 73 µM; in the assay with MDA-MB-231 breast, 25.3 µM; in the assay on MDA-N, 34 µM. In addition, the TGI in the assay on NCI-H460 lung, with OVCAR-4 ovarian and in the assay with TK-10 renal was greater than 100 µM in each case.

In the case of `CC(C)(C)OC(=O)CN1CCNCCN(CC(=O)OC(C)(C)C)CCNCC1`, the TGI with EKVX NSCLC, in the assay with HCT-15 colon, in the assay with HL-60(TB) leukemia, in the assay on HT29 colon, with MDA-MB-231 breast and in the assay with MDA-N was greater than 100 µM each time. The TGI in the assay on NCI-H460 lung, in the assay on OVCAR-4 ovarian and with TK-10 renal was greater than 100 µM each time.

As for `S=c1[nH]n2c(CCCCCCCCc3nnc4sc(=S)[nH]n34)nnc2s1`, the concentration for total growth inhibition (TGI) in the assay with EKVX NSCLC, in the assay with HCT-15 colon, with HL-60(TB) leukemia, in the assay on HT29 colon, in the assay with MDA-MB-231 breast and in the assay on MDA-N was greater than 100 µM throughout. Besides, the total growth inhibition concentration (TGI) with NCI-H460 lung and with OVCAR-4 ovarian was greater than 100 µM throughout.

As to `O=C(N=c1ccc2nc(=O)[nH]n(O)c-2c1)C(F)(F)F`, the TGI in the assay with EKVX NSCLC, in the assay on HCT-15 colon, in the assay with HL-60(TB) leukemia, with HT29 colon, in the assay on MDA-MB-231 breast and in the assay with MDA-N was greater than 100 µM in each case. Further, the TGI with NCI-H460 lung, in the assay with OVCAR-4 ovarian and in the assay with TK-10 renal was greater than 100 µM throughout.

In the case of `O=C(O)c1cnc(-n2[nH]c3c(c2=O)CCCC3)[nH]c1=O`, the TGI with EKVX NSCLC, with HCT-15 colon, with HL-60(TB) leukemia, in the assay on HT29 colon, in the assay on MDA-MB-231 breast and with MDA-N was greater than 100 µM in each case. Moreover, the TGI in the assay on NCI-H460 lung, in the assay with OVCAR-4 ovarian and in the assay on TK-10 renal was greater than 100 µM each time.

For `O=c1oc2ccccc2cc1-c1cn2c(n1)sc1ccccc12`, the total growth inhibition concentration (TGI) was 34.3 µM in the assay on EKVX NSCLC; greater than 100 µM in the assay on HCT-15 colon; greater than 100 µM in the assay with HL-60(TB) leukemia; 11.8 µM in the assay with HT29 colon; greater than 100 µM in the assay on MDA-MB-231 breast; greater than 100 µM in the assay with MDA-N. The TGI in the assay on NCI-H460 lung and in the assay with TK-10 renal was greater than 100 µM in each case.

As for `Clc1ccc(-c2cn3c(nc4ccccc43)c(/C=C/c3ccco3)n2)cc1`, the TGI in the assay with HCT-15 colon is greater than 100 µM; with HL-60(TB) leukemia, 41.7 µM; in the assay with HT29 colon it was greater than 100 µM; in the assay on MDA-MB-231 breast, greater than 100 µM; in the assay on MDA-N, greater than 100 µM; with NCI-H460 lung, greater than 100 µM. Also, the TGI in the assay with OVCAR-4 ovarian was greater than 100 µM; in the assay on TK-10 renal, 82 µM.

Values taken from PubChem BioAssay (NCI).
